Data on 18 compounds can be found in US20250228239A1, “MOLECULES HAVING PESTICIDAL UTILITY, AND INTERMEDIATES, COMPOSITIONS, AND PROCESSES, RELATED THERETO” (priority 2024, published 2025).

Common to all, as to assay type: in vivo
Assay [1] has as its system Yellow Fever Mosquito (Aedes aegypti, AEDSAE). The settings on record: for YFM rating: Table ABC / ABC-DP rating. Summed up:
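Mortality after 3 days at room temperature is the read-out, scored well by well and converted to a rating. Test molecules came from 4000 ppm stocks in DMSO, further diluted in 90:10 water/acetone, and were exposed to roughly 1-day-old larvae suspended in liver-powder water.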

Assay [2] has as its system Beet Armyworm (Spodoptera exigua, LAPHEG). Put plainly: Bioassays on Beet Armyworm (BAW), 128-well diet tray assay. The settings on record: Spodoptera exigua. Summed up:
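Second-instar larvae, one to five per well, were placed on artificial diet surface-treated with 50 μg/cm^2 compound in 90:10 acetone-water, eight wells per treatment. Trays were held 5–7 days at 25 °C, 14:10 light-dark. Percent mortality per well was averaged over eight wells.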

Assay [3] deals with Cabbage Looper (Trichoplusia ni, TRIPNI). In words: Bioassays on Cabbage Looper (CL), 128-well diet tray assay. The settings on record: Trichoplusia ni. Summed up: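 One to five second-instar larvae per well on artificial diet surface-treated with 50 μg/cm^2 test molecule (applied in 90:10 acetone-water, dried). Held 5–7 days at 25° C, 14:10 light-dark; percent mortality recorded per well and averaged over eight wells.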

Setting [4] is: Beet Armyworm, Table ABC / ABC-DP rating, read-out: BAW rating.
Setting [5] is: Cabbage Looper, Table ABC / ABC-DP rating, read-out: CL rating.
The mark [6] stands for this setting: Table ABC: Biological Results, species YFM.
Setting [7] is: Table ABC: Biological Results, species BAW, read-out: BAW.
The mark [8] stands for this setting: Table ABC: Biological Results, species CL, read-out: CL.
[9] abbreviates: Yellow Fever Mosquito, rating class.
Setting [10] is: Beet Armyworm, rating class, read-out: BAW.
Setting [11] is: Cabbage Looper, rating class, read-out: CL.

Read-outs that look alike come from different tables or passages of the source.

For `O=C(NCC(F)(F)F)c1cc(NC(=O)[C@H]2[C@H](c3c(F)c(F)c(F)c(F)c3F)C2(Cl)Cl)ccc1Cl` (relative stereo) [F2002, trans-2-Chloro-5-(2,2-dichloro-3-(perfluorophenyl)cyclopropane-1-carboxamido)-N-(2,2,2-trifluoroethyl)benzamide], in assay [1] (Yellow Fever Mosquito), the YFM rating result is “A (80–100)”. Moreover, the pest or weed control at 50 µg/cm2 in assay [2] (setting [4]) and in assay [3] (setting [5]) was 50 to 100% each time.
As for `O=C(NNc1ccncn1)c1cc(NC(=O)[C@H]2[C@H](c3cc(Cl)cc(Cl)c3)C2(Cl)Cl)ccc1Cl` (relative stereo) [F2509, trans-2,2-Dichloro-N-(4-chloro-3-(2-(pyrimidin-4-yl)hydrazine-1-carbonyl)phenyl)-3-(3,5-dichlorophenyl)cyclopropane-1-carboxamide], the YFM rating entry in assay [1] (Yellow Fever Mosquito) was “A (80–100)”. Also, the pest or weed control at 50 µg/cm2 in assay [2] (setting [4]) and in assay [3] (setting [5]) was 50 to 100% each time.
As for `COc1c(F)cc(NC(=O)[C@H]2[C@H](c3ccc(F)c(Cl)c3)C2(Cl)Cl)cc1C(=O)Nc1ccc(F)cc1` (relative stereo) [F1218, trans-5-(2,2-Dichloro-3-(3-chloro-4-fluorophenyl)cyclopropane-1-carboxamido)-3-fluoro-N-(4-fluorophenyl)-2-methoxybenzamide], the YFM result in assay [1] (setting [6]) is given as “A (80–100)”. Also, the pest or weed control at 50 µg/cm2 in assay [2] (setting [7]) and in assay [3] (setting [8]) was 50 to 100% in each case.
`C=C(F)c1ccc(NC(=O)c2cc(NC(=O)[C@H]3[C@H](c4cc(Cl)cc(Cl)c4)C3(Cl)Cl)ccc2Cl)c(F)c1` (relative stereo) [F1320, trans-2-Chloro-5-(2,2-dichloro-3-(3,5-dichlorophenyl)cyclopropane-1-carboxamido)-N-(2-fluoro-4-(1-fluorovinyl)phenyl)benzamide]: the YFM entry in assay [1] (setting [6]) is “A (80–100)”. Further, the pest or weed control at 50 µg/cm2 in assay [2] (setting [7]) and in assay [3] (setting [8]) was 50 to 100% in each case.
Consider `Cc1cc(NCc2ccc(OC(F)(F)F)cc2)ccc1NC(=O)c1cc(NC(=O)[C@H]2[C@H](c3cc(Cl)cc(Cl)c3)C2(Cl)Cl)ccc1Cl` (relative stereo) [F1117, trans-2-Chloro-5-(2,2-dichloro-3-(3,5-dichlorophenyl)cyclopropane-1-carboxamido)-N-(2-methyl-4-((4-(trifluoromethoxy)benzyl)amino)phenyl)benzamide], for which the YFM entry in assay [1] (setting [6]) is on record as “A (80–100)”. Also, the pest or weed control at 50 µg/cm2 in assay [2] (setting [7]) and in assay [3] (setting [8]) was 50 to 100% in each case.
Regarding `C=C(F)c1cc(NC(=O)c2cc(NC(=O)[C@H]3[C@H](c4cc(Cl)cc(Cl)c4)C3(Cl)Cl)ccc2Cl)ccc1F` (relative stereo) [F1318, trans-2-Chloro-5-(2,2-dichloro-3-(3,5-dichlorophenyl)cyclopropane-1-carboxamido)-N-(4-fluoro-3-(1-fluorovinyl)phenyl)benzamide], the YFM entry in assay [1] (setting [6]) is given as “A (80–100)”. In addition, the pest or weed control at 50 µg/cm2 in assay [2] (setting [7]) and in assay [3] (setting [8]) was 50 to 100% throughout.
As for `O=C(NCCC(F)(F)F)c1cc(NC(=O)[C@H]2[C@H](c3ccc(F)c(Cl)c3)C2(Cl)Cl)cc(C(F)(F)F)c1Cl` (relative stereo) [F2055, trans-2-Chloro-5-(2,2-dichloro-3-(3-chloro-4-fluorophenyl)cyclopropane-1-carboxamido)-3-(trifluoromethyl)-N-(3,3,3-trifluoropropyl)benzamide], in assay [1] (Yellow Fever Mosquito), the YFM rating entry is on record as “A (80–100)”. Further, the pest or weed control at 50 µg/cm2 in assay [2] (setting [4]) and in assay [3] (setting [5]) was 50 to 100% in each case.
Turning to `O=C(Nc1ccc(F)c(NC(=O)C(F)(F)C(F)F)c1F)c1cc(NC(=O)[C@H]2[C@H](c3ccc(F)c(C(F)(F)F)c3)C2(Cl)Cl)ccc1Cl` [F1301, 2-Chloro-5-((1R,3R)-2,2-dichloro-3-(4-fluoro-3-(trifluoromethyl)phenyl)cyclopropane-1-carboxamido)-N-(2,4-difluoro-3-(2,2,3,3-tetrafluoropropanamido)phenyl)benzamide], the YFM result in assay [1] (setting [6]) is “A (80–100)”. The pest or weed control at 50 µg/cm2 in assay [2] (setting [7]) and in assay [3] (setting [8]) was 50 to 100% each time.
In the case of `Cc1c(Cl)cc(NC(=O)[C@H]2[C@H](c3ccc(F)c(Cl)c3)C2(Cl)Cl)cc1C(=O)Nc1ccccc1` (relative stereo) [F1188, trans-3-Chloro-5-(2,2-dichloro-3-(3-chloro-4-fluorophenyl)cyclopropane-1-carboxamido)-2-methyl-N-phenylbenzamide], the YFM entry in assay [1] (setting [6]) is “A (80–100)”. Besides, the pest or weed control at 50 µg/cm2 in assay [2] (setting [7]) and in assay [3] (setting [8]) was 50 to 100% in each case.
`O=C(Nc1c(F)ccc(NC(=O)C(F)F)c1F)c1cc(NC(=O)[C@H]2[C@H](c3ccc(F)c(C(F)(F)F)c3)C2(Cl)Cl)ccc1Cl` [F1394, 2-Chloro-5-((1R,3R)-2,2-dichloro-3-(4-fluoro-3-(trifluoromethyl)phenyl)cyclopropane-1-carboxamido)-N-(3-(2,2-difluoroacetamido)-2,6-difluorophenyl)benzamide]: the YFM result in assay [1] (setting [9]) was “A (80–100)”. For the same compound, the pest or weed control at 50 µg/cm2 in assay [2] (setting [10]) and in assay [3] (setting [11]) was 50 to 100% each time.
`C=Cc1cc(NC(=O)c2cc(NC(=O)[C@H]3[C@H](c4cc(Cl)cc(Cl)c4)C3(Cl)Cl)ccc2Cl)c(F)cc1F` (relative stereo) [F1315, trans-2-Chloro-5-(2,2-dichloro-3-(3,5-dichlorophenyl)cyclopropane-1-carboxamido)-N-(2,4-difluoro-5-vinylphenyl)benzamide]: the YFM entry in assay [1] (setting [6]) is given as “A (80–100)”. Also, the pest or weed control at 50 µg/cm2 in assay [2] (setting [7]) and in assay [3] (setting [8]) was 50 to 100% throughout.
With `O=C(COC(F)(F)F)Nc1c(F)ccc(NC(=O)c2cc(NC(=O)[C@H]3[C@H](c4ccc(Cl)c(Cl)c4)C3(Cl)Cl)ccc2Cl)c1F` [F1766, 2-Chloro-5-((1R,3R)-2,2-dichloro-3-(3,4-dichlorophenyl)cyclopropane-1-carboxamido)-N-(2,4-difluoro-3-(2-(trifluoromethoxy)acetamido)phenyl)benzamide], in assay [1] (setting [9]), the YFM entry was “A (80–100)”. In addition, the pest or weed control at 50 µg/cm2 in assay [2] (setting [10]) and in assay [3] (setting [11]) was 50 to 100% in each case.
Regarding `COCC(=O)N(C)c1c(F)ccc(NC(=O)c2cc(NC(=O)[C@H]3[C@H](c4ccc(Cl)c(Cl)c4)C3(Cl)Cl)ccc2Cl)c1F` [F1630, 2-Chloro-5-((1R,3R)-2,2-dichloro-3-(3,4-dichlorophenyl)cyclopropane-1-carboxamido)-N-(2,4-difluoro-3-(2-methoxy-N-methylacetamido)phenyl)benzamide], the YFM entry in assay [1] (setting [9]) is “A (80–100)”. Also, the pest or weed control at 50 µg/cm2 in assay [2] (setting [10]) and in assay [3] (setting [11]) was 50 to 100% each time.
As to `C=CCC(=O)Nc1c(F)ccc(NC(=O)c2cc(NC(=O)[C@H]3[C@H](c4ccc(F)c(C(F)(F)F)c4)C3(Cl)Cl)ccc2Cl)c1F` [F1874, N-(3-(But-3-enamido)-2,4-difluorophenyl)-2-chloro-5-((1R,3R)-2,2-dichloro-3-(4-fluoro-3-(trifluoromethyl)phenyl)cyclopropane-1-carboxamido)benzamide], in assay [1] (Yellow Fever Mosquito), the YFM rating result was “A (80–100)”. Also, the pest or weed control at 50 µg/cm2 in assay [2] (setting [4]) and in assay [3] (setting [5]) was 50 to 100% each time.
As for `Cc1cc(NC(=O)[C@H]2[C@H](c3ccc(F)c(Cl)c3)C2(Cl)Cl)cc(C(=O)NCCCCl)c1F` (relative stereo) [F2032, trans-N-(3-Chloropropyl)-5-(2,2-dichloro-3-(3-chloro-4-fluorophenyl)-cyclopropane-1-carboxamido)-2-fluoro-3-methylbenzamide], the YFM rating entry in assay [1] (Yellow Fever Mosquito) is reported as “A (80–100)”. Moreover, the pest or weed control at 50 µg/cm2 in assay [2] (setting [4]) and in assay [3] (setting [5]) was 50 to 100% throughout.
As to `Cc1cc(NC(=O)C(F)F)ccc1NC(=O)c1cc(NC(=O)[C@H]2[C@H](c3ccc(Cl)c(Cl)c3)C2(Cl)Cl)ccc1Cl` (relative stereo) [F1062, trans-2-Chloro-5-(2,2-dichloro-3-(3,4-dichlorophenyl)cyclopropane-1-carboxamido)-N-(4-(2,2-difluoroacetamido)-2-methylphenyl)benzamide], the YFM entry in assay [1] (setting [6]) is listed as “A (80–100)”. Also, the pest or weed control at 50 µg/cm2 in assay [2] (setting [7]) and in assay [3] (setting [8]) was 50 to 100% throughout.
Consider `O=C(Nc1ccc(F)c(NC(=O)C2CC=CCC2)c1F)c1cc(NC(=O)[C@H]2[C@H](c3ccc(F)c(C(F)(F)F)c3)C2(Cl)Cl)ccc1Cl` (stereo partly drawn) [F1297, 2-Chloro-N-(3-(cyclohex-3-ene-1-carboxamido)-2,4-difluorophenyl)-5-((1R,3R)-2,2-dichloro-3-(4-fluoro-3-(trifluoromethyl)phenyl)cyclopropane-1-carboxamido)benzamide], for which the YFM entry in assay [1] (setting [6]) is recorded as “A (80–100)”. For the same compound, the pest or weed control at 50 µg/cm2 in assay [2] (setting [7]) and in assay [3] (setting [8]) was 50 to 100% each time.
`O=C(Nc1ccc(F)cc1F)c1cc(NC(=O)C2C(c3cc(Cl)cc(S(F)(F)(F)(F)F)c3)C2(Cl)Cl)ccc1Cl` (stereo not drawn) [F1233, cis-2-Chloro-5-(2,2-dichloro-3-(3-chloro-5-(pentafluoro-λ^6-sulfanyl)phenyl)cyclopropane-1-carboxamido)-I-(2,4-difluorophenyl)benzamide]: the YFM entry in assay [1] (setting [6]) was “A (80–100)”. Besides, the pest or weed control at 50 µg/cm2 in assay [2] (setting [7]) and in assay [3] (setting [8]) was 50 to 100% throughout.
